Among the data in patent US20240270821A1, “GIP/GLP1/GCG TRI-RECEPTOR AGONISTS AND USES THEREOF” (priority 2023, published 2024) are EC50 values, retold here.

Holding throughout (assay type): cell-based
The target of test [1] is T1, hGIPR (Homo sapiens, UniProt P48546).
T1 sequence (P48546 22-466): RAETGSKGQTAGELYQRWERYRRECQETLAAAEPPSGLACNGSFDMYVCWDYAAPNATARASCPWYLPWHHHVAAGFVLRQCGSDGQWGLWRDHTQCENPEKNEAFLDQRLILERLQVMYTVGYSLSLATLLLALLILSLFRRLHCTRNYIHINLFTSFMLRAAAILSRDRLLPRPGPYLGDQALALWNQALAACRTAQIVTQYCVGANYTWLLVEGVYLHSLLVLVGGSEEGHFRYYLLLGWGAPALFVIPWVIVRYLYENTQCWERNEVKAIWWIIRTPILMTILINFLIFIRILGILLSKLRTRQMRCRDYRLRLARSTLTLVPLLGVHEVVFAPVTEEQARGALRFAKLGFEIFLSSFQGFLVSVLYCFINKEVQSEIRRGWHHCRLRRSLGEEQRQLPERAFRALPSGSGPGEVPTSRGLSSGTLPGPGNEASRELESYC
Briefly: Functional cAMP activation in the presence of 0.1% casein (no HSA). Particulars: read-out: Relative cAMP EC50, hGIPR.

For test [2], the target named is hGcgR (Homo sapiens, UniProt P47871). The test is described as above. Particulars: read-out: Relative cAMP EC50, hGcgR.
Chain of hGcgR (P47871 26-477): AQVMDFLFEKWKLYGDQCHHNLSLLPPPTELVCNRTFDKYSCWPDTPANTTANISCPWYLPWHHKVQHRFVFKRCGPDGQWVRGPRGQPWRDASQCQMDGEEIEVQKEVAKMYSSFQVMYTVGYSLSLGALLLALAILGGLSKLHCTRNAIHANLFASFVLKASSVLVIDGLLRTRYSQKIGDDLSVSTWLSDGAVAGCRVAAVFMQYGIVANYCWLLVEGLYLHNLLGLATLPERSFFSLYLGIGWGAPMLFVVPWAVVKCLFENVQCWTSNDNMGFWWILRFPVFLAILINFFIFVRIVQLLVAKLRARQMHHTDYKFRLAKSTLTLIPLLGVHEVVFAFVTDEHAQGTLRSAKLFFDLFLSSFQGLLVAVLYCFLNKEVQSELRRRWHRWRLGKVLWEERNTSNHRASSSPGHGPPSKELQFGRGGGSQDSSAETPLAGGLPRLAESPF
Test [3] has as its target T2, hGLP-1R (Homo sapiens, UniProt P43220). Described as above. Particulars: read-out: Relative cAMP EC50, hGLP-1R.
Test [4] concerns the target T2, hGLP-1R. Briefly: Functional cAMP activity in the presence of 1% HSA. The note with it: read-out: cAMP Rel EC50, hGLP-1R.
The target in test [5] is human GcgR (Homo sapiens, UniProt P47871). Description: Functional cAMP activity in the presence of 1% HSA. The note with it: read-out: cAMP Rel EC50, hGcgR.
Chain of human GcgR (P47871 26-477): as above
For test [6], the target named is T1, hGIPR. Briefly: Functional cAMP activity in the presence of 1% HSA. The note with it: read-out: cAMP Rel EC50, hGIPR.

Structures are written as SMILES. Starred links: 1 amine or outer side, 2 acyl side, 3 side chain; linkers in the order of their positions; H or OH if unused. Non-standard residues stand in square brackets, D forms with d. Residues, ends and D or L forms follow the SMILES beside them. Groups on a side chain read outwards from the residue. *: point of attachment. C18 diacid = O=C(O)CCCCCCCCCCCCCCCCC(=O)*; αMePhe(2-F) = C[C@](N)(Cc1ccccc1F)C(=O)O; γGlu = O=C(O)[C@H](CCC(=O)[*:2])N[*:1]; αMeY = C[C@](N)(Cc1ccc(O)cc1)C(=O)O; 4Pal = N[C@@H](Cc1ccncc1)C(=O)O; αMeL = CC(C)C[C@](C)(N)C(=O)O; αMeS = C[C@](N)(CO)C(=O)O; Orn = NCCC[C@H](N)C(=O)O; Aib = CC(C)(N)C(=O)O
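Wherever Relative cAMP EC50, hGIPR is given: intracellular cAMP rise after 30 min at 37 °C read by HTRF against a standard curve, scaled between buffer alone (0%) and top control ligand concentration (100%), four-parameter fit.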
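Wherever Relative cAMP EC50, hGLP-1R is given: intracellular cAMP rise after 30 min at 37 °C read by HTRF, normalized between buffer only (0%) and maximal control ligand (100%), four-parameter variable-slope fit.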
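Wherever Relative cAMP EC50, hGcgR is given: intracellular cAMP rise after 30 min at 37 °C, read by HTRF against a cAMP standard curve, scaled from buffer only (0%) to maximal control ligand response (100%).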

T2 sequence (P43220 24-463): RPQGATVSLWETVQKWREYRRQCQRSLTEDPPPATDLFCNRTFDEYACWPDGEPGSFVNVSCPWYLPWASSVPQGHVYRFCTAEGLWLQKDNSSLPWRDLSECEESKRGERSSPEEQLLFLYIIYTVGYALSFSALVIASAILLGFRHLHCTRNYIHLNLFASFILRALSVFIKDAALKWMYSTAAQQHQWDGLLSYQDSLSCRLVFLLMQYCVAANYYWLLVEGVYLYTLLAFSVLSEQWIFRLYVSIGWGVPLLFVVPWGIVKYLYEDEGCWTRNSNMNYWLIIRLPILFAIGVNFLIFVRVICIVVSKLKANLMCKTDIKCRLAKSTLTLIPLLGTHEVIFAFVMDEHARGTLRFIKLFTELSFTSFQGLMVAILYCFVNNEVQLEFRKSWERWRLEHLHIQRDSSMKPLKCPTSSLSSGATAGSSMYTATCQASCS

Regarding `CC[C@H](C)[C@H](NC(=O)[C@H](Cc1ccccc1)NC(=O)[C@H](C)NC(=O)C(C)(C)NC(=O)[C@H](CCC(N)=O)NC(=O)[C@H](C)NC(=O)[C@H](CCCCNC(=O)COCCOCCNC(=O)CC[C@H](NC(=O)CCCCCCCCCCCCCCCCC(=O)O)C(=O)O)NC(=O)[C@H](CCCCN)NC(=O)[C@H](CC(=O)O)NC(=O)[C@H](CC(C)C)NC(=O)[C@](C)(CC(C)C)NC(=O)[C@@H](NC(=O)[C@H](CO)NC(=O)[C@H](Cc1ccc(O)cc1)NC(=O)[C@H](CC(=O)O)NC(=O)[C@H](CO)NC(=O)[C@@H](NC(=O)[C@](C)(Cc1ccccc1F)NC(=O)[C@@H](NC(=O)CNC(=O)[C@H](CCC(N)=O)NC(=O)C(C)(C)NC(=O)[C@@H](N)Cc1ccc(O)cc1)[C@@H](C)O)[C@@H](C)O)[C@@H](C)CC)C(=O)N[C@@H](CCC(=O)O)C(=O)N[C@@H](Cc1ccc(O)cc1)C(=O)N[C@@H](CC(C)C)C(=O)N[C@@H](CCC(=O)O)C(=O)N[C@@H](CCC(=O)O)C(=O)NCC(=O)NCC(=O)N1CCC[C@H]1C(=O)N[C@@H](CO)C(=O)N[C@@H](CO)C(=O)NCC(=O)N[C@@H](C)C(=O)N1CCC[C@H]1C(=O)N1CCC[C@H]1C(=O)N1CCC[C@H]1C(=O)N[C@@H](CO)C(=O)N[C@@H](CCC(=O)O)C(=O)NCC(N)=O` [Example 431], the EC50 in test [1] worked out at 0.0157 nM; in test [2] it was 3.32 nM; in test [3], 0.392 nM; in test [4], 35.2 nM; in test [5], 352 nM; in test [6] it was 3.73 nM.
With `CC[C@H](C)[C@H](NC(=O)[C@H](Cc1ccccc1)NC(=O)[C@H](C)NC(=O)C(C)(C)NC(=O)[C@H](CCC(N)=O)NC(=O)[C@H](C)NC(=O)[C@H](CCCCNC(=O)CC[C@H](NC(=O)CC[C@H](NC(=O)CCCCCCCCCCCCCCCCC(=O)O)C(=O)O)C(=O)O)NC(=O)[C@H](CCCCN)NC(=O)[C@H](CC(=O)O)NC(=O)[C@H](CC(C)C)NC(=O)[C@H](CC(C)C)NC(=O)[C@@H](NC(=O)[C@H](CO)NC(=O)[C@H](Cc1ccc(O)cc1)NC(=O)[C@H](CC(=O)O)NC(=O)[C@H](CO)NC(=O)[C@@H](NC(=O)[C@](C)(Cc1ccccc1F)NC(=O)[C@@H](NC(=O)CNC(=O)[C@H](CCC(N)=O)NC(=O)C(C)(C)NC(=O)[C@@H](N)Cc1ccc(O)cc1)[C@@H](C)O)[C@@H](C)O)[C@@H](C)CC)C(=O)N[C@@H](CCC(=O)O)C(=O)N[C@@H](Cc1ccc(O)cc1)C(=O)N[C@@H](CC(C)C)C(=O)N[C@@H](CCC(=O)O)C(=O)N[C@@H](CCC(=O)O)C(=O)NCC(=O)NCC(=O)N1CCC[C@H]1C(=O)N[C@@H](CO)C(=O)N[C@@H](CO)C(=O)NCC(=O)N[C@@H](C)C(=O)N1CCC[C@H]1C(=O)N1CCC[C@H]1C(=O)N1CCC[C@H]1C(=O)N[C@@H](CO)C(=O)N[C@@H](CCC(=O)O)C(N)=O` [Example 433] (H-Y[Aib]QGT[αMePhe(2-F)]TSDYSILLDKK([γGlu-γGlu-C18 diacid])AQ[Aib]AFIEYLEEGGPSSGAPPPSE-NH2; N-terminus assumed), the EC50 in test [1] was found to be 0.0206 nM; in test [2] it was 5.78 nM; in test [3] it was 0.273 nM; in test [4], 43.4 nM; in test [5], 532 nM; in test [6], 15.3 nM.
Take `CC[C@H](C)[C@H](NC(=O)[C@H](CC(C)C)NC(=O)[C@](C)(Cc1ccc(O)cc1)NC(=O)[C@@H](CCC(=O)O)NC(=O)[C@@H](NC(=O)[C@H](Cc1ccccc1)NC(=O)[C@H](CO)NC(=O)C(C)(C)NC(=O)[C@H](CCC(N)=O)NC(=O)[C@H](C)NC(=O)[C@H](CCCCNC(=O)CC[C@H](NC(=O)CC[C@H](NC(=O)CCCCCCCCCCCCCCCCC(=O)O)C(=O)O)C(=O)O)NC(=O)[C@H](CCCN)NC(=O)[C@H](CC(=O)O)NC(=O)[C@H](CC(C)C)NC(=O)[C@](C)(CC(C)C)NC(=O)[C@@H](NC(=O)[C@](C)(CO)NC(=O)[C@H](Cc1ccncc1)NC(=O)[C@H](CC(=O)O)NC(=O)[C@H](CO)NC(=O)[C@@H](NC(=O)[C@](C)(Cc1ccccc1F)NC(=O)[C@@H](NC(=O)CNC(=O)[C@H](CCC(N)=O)NC(=O)C(C)(C)NC(=O)[C@@H](N)Cc1ccc(O)cc1)[C@@H](C)O)[C@@H](C)O)[C@@H](C)CC)[C@@H](C)CC)C(=O)N[C@@H](CCC(=O)O)C(=O)NCC(=O)NCC(=O)N1CCC[C@H]1C(=O)N[C@@H](CO)C(=O)N[C@@H](CO)C(=O)NCC(=O)N[C@@H](CCC(=O)O)C(=O)N1CCC[C@H]1C(=O)N1CCC[C@H]1C(=O)N1CCC[C@H]1C(=O)N[C@@H](CCC(=O)O)C(N)=O` [Example 436] (H-Y[Aib]QGT[αMePhe(2-F)]TSD[4Pal][αMeS]I[αMeL]LD[Orn]K([γGlu-γGlu-C18 diacid])AQ[Aib]SFI[dE][αMeY]LIEGGPSSGEPPPE-NH2; N-terminus assumed): the EC50 in test [1] was 0.0294 nM; in test [2] it was 2.27 nM; in test [3], 0.173 nM; in test [4] it was 11.7 nM; in test [5] it was 182 nM; in test [6] it was 1.18 nM.
In the case of `CC[C@H](C)[C@H](NC(=O)[C@H](Cc1ccccc1)NC(=O)[C@H](CCCN)NC(=O)C(C)(C)NC(=O)[C@H](CCC(N)=O)NC(=O)[C@H](C)NC(=O)[C@H](CCCCNC(=O)CC[C@H](NC(=O)CC[C@H](NC(=O)CCCCCCCCCCCCCCCCC(=O)O)C(=O)O)C(=O)O)NC(=O)[C@H](CCCN)NC(=O)[C@H](CC(=O)O)NC(=O)[C@H](CC(C)C)NC(=O)[C@](C)(CC(C)C)NC(=O)[C@@H](NC(=O)[C@](C)(CO)NC(=O)[C@H](Cc1ccncc1)NC(=O)[C@H](CC(=O)O)NC(=O)[C@H](CO)NC(=O)[C@@H](NC(=O)[C@](C)(Cc1ccccc1F)NC(=O)[C@@H](NC(=O)CNC(=O)[C@H](CCC(N)=O)NC(=O)C(C)(C)NC(=O)[C@@H](N)Cc1ccc(O)cc1)[C@@H](C)O)[C@@H](C)O)[C@@H](C)CC)C(=O)N[C@H](CCC(=O)O)C(=O)N[C@@](C)(Cc1ccc(O)cc1)C(=O)N[C@@H](CC(C)C)C(=O)N[C@@H](C)C(=O)N[C@@H](CCC(=O)O)C(=O)NCC(=O)NCC(=O)N1CCC[C@H]1C(=O)N[C@@H](CO)C(=O)N[C@@H](CO)C(=O)NCC(=O)N[C@@H](CCC(=O)O)C(=O)N1CCC[C@H]1C(=O)N1CCC[C@H]1C(=O)N1CCC[C@H]1C(=O)N[C@@H](CCC(=O)O)C(N)=O` [Example 437] (H-Y[Aib]QGT[αMePhe(2-F)]TSD[4Pal][αMeS]I[αMeL]LD[Orn]K([γGlu-γGlu-C18 diacid])AQ[Aib][Orn]FI[dE][αMeY]LAEGGPSSGEPPPE-NH2), the EC50 in test [1] is 0.0872 nM; in test [2], 1.76 nM; in test [3] it was 0.421 nM; in test [4], 26.9 nM; in test [5], 188 nM; in test [6] it was 16.9 nM.
